# Active and inactive are the calls of the source.
# Columns and labels:
# [1] = biological target: Photoreceptor-specific nuclear receptor (Homo sapiens, UniProt Q9Y5X4); assay: NR2E3 inverse agonists, dose response, biochemical, TR-FRET (AID 463256); type: functional
# [2] = biological target: G-protein coupled receptor 55 (Homo sapiens, UniProt Q9Y2T6); assay: GPR55 agonists via beta-arrestin recruitment, primary screen, imaging, U2OS cells, beta-arrestin-GFP redistribution (AID 1961); type: functional
# [3] = biological target: Peroxisome proliferator-activated receptor gamma/Nuclear receptor corepressor 2 (Homo sapiens, UniProt P37231+Q9Y618); assay: Counterscreen for NR2E3 inverse agonists: TR-FRET-based biochemical high throughput dose response assay to identify inverse agonists of the interaction between peroxisome proliferator-activated receptor gamma (PPARg) and nuclear receptor co-repressor 2 (NCOR2).; type: functional
# [4] = biological target: Mitogen-activated protein kinase 10 (Homo sapiens, UniProt P53779); assay: Dose response biochemical screening assay for inhibitors of c-Jun N-Terminal Kinase 3 (JNK3). [Related pubchem assays: 746 ]
# [5] = P. falciparum Dd2 growth inhibitors, dose response, SYBR Green, dry powder samples, set 9 (AID 1159568); type: functional, cell-based
# [6] = biological target: Induced myeloid leukemia cell differentiation protein Mcl-1 (Homo sapiens, UniProt Q07820); type: functional
# [7] = biological target: Glutathione-S-transferase (Schistosoma japonicum, UniProt Q26513); assay: biotin-GST/anti-GST TR-FRET signal inhibitors, dose response, artefact control for Vif-APOBEC3G degradation inhibitor project, biochemical (AID 1117362); type: functional
# Protein Tat = Protein Tat (Human immunodeficiency virus type 1 group M subtype B (isolate HXB2)(HIV-1), UniProt P04608); type: functional;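 also: tat binding to TAR RNA read out by fluorescence polarization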
# [8] = microbe, parasite or virus in culture; type: functional; conditions: Mycobacterium tuberculosis
# [9] = M. tuberculosis growth inhibition, HTS (AID 449762); type: functional
# [10] = inhibitors of intracellular T. cruzi replication, confirmation, NIH3T3 host cells, beta-gal luminescence (AID 2044); type: functional, cell-based;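 also: intracellular parasites grown in NIH/3T3 mouse fibroblasts as host cells; luminescent beta-galactosidase reporter signal from transgenic T. cruzi replicating inside host cells; inhibitors lower the luminescence signal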
# [11] = cytotoxicity toward NIH3T3 fibroblasts, dose response, counter-screen, cell-based, ATP luminescence, mouse fibroblasts (AID 2010); type: functional;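 also: cells exposed to compound for about 90 hours before reading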
# Transthyretin = Transthyretin (Homo sapiens, UniProt P02766); assay: Luminescence-based cell-based high throughput dose response assay to identify activators of Transthyretin (TTR) transcription.; type: functional
# [12] = Vero cell cytotoxicity, dose response, cytotoxicity control for Vif-APOBEC3G degradation inhibitor project, Vero cells (AID 1117358); type: functional; conditions: Human immunodeficiency virus 1, Vero
# [13] = inhibitors of Vif binding to APOBEC3G peptide, primary screen, biochemical, TR-FRET, GST-Vif 1-94, biotin-A3G peptide, dose response retest (AID 1117319); type: functional;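 also: TR-FRET signal of purified GST-Vif binding a biotinylated A3G peptide; inhibitors lower the FRET signal by blocking Vif and A3G binding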
# Sequence of Induced myeloid leukemia cell differentiation protein Mcl-1 (Q07820 whole entry): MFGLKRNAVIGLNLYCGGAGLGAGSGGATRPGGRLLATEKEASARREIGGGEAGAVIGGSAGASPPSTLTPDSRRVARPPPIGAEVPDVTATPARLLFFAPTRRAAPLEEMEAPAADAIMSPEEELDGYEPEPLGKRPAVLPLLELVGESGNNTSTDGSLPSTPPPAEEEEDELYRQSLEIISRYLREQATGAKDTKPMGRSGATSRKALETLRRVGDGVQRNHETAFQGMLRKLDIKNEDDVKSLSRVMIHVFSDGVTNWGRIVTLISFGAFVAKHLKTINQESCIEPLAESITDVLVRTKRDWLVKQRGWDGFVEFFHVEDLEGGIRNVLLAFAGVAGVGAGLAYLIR
# Sequence of Mitogen-activated protein kinase 10 (P53779 whole entry): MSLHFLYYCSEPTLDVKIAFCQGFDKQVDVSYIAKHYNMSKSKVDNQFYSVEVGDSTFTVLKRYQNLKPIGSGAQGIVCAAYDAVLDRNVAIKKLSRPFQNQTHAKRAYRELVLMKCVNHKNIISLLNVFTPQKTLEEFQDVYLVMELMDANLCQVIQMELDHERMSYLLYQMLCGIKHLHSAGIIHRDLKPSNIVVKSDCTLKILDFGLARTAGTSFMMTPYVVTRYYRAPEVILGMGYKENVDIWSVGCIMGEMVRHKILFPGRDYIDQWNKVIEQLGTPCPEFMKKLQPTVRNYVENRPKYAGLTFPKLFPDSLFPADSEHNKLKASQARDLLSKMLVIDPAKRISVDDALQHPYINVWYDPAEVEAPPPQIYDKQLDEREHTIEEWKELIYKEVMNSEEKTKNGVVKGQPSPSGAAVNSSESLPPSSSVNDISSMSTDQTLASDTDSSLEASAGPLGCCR
# Sequence of Peroxisome proliferator-activated receptor gamma/Nuclear receptor corepressor 2 (P37231 whole entry): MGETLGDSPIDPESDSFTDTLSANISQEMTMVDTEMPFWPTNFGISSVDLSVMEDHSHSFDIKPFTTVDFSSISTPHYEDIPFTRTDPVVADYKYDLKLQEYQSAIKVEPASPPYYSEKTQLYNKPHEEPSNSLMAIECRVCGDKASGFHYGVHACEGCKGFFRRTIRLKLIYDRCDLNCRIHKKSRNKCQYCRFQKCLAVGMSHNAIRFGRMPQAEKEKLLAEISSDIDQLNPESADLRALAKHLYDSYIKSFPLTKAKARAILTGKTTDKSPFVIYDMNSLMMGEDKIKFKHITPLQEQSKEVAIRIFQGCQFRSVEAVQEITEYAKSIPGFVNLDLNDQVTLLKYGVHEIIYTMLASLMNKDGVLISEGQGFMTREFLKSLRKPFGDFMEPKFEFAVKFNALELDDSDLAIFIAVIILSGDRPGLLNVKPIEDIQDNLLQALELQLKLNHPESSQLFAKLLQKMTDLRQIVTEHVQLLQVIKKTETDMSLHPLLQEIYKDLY
# Sequence of Peroxisome proliferator-activated receptor gamma/Nuclear receptor corepressor 2 (Q9Y618 whole entry): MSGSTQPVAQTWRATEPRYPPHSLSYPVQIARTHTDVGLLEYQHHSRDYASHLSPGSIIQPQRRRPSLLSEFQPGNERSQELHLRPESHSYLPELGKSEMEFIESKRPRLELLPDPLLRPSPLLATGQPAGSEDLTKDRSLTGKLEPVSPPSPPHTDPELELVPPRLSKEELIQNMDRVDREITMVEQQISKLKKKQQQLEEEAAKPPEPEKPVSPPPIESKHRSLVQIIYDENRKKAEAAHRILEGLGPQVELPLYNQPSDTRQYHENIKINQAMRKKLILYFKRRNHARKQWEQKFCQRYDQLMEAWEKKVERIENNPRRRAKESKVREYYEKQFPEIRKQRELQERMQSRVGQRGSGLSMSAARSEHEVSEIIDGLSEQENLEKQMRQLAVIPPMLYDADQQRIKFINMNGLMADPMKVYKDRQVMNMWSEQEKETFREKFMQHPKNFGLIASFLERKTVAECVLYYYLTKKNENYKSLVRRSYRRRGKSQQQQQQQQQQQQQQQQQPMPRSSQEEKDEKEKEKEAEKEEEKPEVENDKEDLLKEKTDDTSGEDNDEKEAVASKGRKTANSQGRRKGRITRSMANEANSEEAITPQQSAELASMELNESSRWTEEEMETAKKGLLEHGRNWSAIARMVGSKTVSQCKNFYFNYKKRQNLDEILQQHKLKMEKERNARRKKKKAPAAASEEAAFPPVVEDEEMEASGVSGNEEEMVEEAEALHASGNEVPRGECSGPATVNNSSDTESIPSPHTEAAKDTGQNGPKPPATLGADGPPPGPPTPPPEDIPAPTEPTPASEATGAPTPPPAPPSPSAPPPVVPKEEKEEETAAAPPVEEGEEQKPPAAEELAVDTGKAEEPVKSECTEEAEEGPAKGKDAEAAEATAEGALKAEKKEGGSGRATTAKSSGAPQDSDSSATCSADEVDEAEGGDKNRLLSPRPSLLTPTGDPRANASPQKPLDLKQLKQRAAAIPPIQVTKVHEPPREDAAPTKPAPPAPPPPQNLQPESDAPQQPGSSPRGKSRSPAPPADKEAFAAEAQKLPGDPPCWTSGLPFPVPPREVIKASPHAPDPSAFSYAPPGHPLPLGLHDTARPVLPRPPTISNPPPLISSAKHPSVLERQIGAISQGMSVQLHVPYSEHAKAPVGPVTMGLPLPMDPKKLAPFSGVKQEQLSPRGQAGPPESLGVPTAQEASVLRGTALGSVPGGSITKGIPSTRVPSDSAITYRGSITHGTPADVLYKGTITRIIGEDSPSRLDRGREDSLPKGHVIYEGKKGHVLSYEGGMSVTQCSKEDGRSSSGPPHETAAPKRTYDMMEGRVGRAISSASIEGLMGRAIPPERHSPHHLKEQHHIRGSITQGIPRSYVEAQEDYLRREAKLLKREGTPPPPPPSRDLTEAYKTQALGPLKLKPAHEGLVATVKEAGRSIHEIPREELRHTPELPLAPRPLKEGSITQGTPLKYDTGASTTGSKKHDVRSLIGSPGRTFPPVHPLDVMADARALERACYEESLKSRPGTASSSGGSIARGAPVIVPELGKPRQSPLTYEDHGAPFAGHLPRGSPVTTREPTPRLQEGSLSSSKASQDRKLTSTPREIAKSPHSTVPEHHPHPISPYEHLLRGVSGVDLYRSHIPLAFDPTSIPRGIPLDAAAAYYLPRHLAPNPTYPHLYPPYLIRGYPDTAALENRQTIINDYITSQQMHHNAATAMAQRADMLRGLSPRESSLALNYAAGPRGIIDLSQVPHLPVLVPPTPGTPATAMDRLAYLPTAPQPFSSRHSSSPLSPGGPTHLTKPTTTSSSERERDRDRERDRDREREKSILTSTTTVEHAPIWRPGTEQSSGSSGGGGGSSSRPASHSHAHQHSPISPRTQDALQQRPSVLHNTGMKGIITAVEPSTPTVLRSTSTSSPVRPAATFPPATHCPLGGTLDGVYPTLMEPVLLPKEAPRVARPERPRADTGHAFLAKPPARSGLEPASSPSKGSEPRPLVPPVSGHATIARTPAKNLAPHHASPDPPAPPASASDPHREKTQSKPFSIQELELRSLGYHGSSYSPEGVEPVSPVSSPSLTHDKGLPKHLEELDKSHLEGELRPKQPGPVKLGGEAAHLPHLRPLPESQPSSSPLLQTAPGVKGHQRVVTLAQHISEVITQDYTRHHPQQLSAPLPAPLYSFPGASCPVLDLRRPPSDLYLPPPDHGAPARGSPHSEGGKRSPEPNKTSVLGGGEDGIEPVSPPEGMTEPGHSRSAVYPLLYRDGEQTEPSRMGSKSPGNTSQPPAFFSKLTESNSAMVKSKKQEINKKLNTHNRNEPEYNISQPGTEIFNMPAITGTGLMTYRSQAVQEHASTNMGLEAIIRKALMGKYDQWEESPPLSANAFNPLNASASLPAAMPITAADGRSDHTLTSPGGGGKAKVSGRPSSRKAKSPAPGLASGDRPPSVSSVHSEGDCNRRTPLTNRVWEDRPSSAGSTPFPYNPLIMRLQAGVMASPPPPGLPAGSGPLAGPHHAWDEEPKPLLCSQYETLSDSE
# Sequence of G-protein coupled receptor 55 (Q9Y2T6 whole entry): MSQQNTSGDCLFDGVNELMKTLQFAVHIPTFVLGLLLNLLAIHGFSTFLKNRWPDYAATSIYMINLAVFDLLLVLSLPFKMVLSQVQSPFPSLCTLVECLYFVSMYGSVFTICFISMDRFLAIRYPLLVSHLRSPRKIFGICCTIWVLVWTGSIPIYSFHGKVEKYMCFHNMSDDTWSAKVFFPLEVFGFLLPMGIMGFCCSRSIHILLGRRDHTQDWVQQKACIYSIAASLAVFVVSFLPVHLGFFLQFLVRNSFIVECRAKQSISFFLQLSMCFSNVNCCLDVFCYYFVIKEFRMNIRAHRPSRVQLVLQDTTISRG
# Sequence of Glutathione-S-transferase (Q26513 whole entry): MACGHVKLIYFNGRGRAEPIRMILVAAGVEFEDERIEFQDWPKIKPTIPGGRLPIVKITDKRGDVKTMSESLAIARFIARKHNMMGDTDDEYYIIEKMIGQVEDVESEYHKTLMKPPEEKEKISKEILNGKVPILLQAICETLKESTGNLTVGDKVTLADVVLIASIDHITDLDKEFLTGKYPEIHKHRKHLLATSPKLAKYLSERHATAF
# Sequence of Photoreceptor-specific nuclear receptor (Q9Y5X4 whole entry): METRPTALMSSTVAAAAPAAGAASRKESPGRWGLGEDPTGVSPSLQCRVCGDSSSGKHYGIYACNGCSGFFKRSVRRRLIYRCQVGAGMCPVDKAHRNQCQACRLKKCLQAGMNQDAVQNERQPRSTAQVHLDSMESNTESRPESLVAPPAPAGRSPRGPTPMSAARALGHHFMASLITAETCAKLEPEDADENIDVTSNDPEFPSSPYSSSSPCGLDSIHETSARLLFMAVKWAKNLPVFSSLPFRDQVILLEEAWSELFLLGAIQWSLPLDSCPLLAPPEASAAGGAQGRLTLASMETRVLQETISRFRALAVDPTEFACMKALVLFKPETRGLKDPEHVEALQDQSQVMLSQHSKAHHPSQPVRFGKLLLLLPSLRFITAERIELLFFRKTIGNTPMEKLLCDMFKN
# Sequence of Protein Tat (P04608 whole entry): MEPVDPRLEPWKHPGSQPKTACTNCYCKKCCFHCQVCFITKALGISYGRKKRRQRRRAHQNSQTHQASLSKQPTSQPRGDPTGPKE
smiles,measurement,setting,value
COc1cccc2sc(NC(=O)c3ccc(Br)s3)nc12,IC50,[1],3.41 µM (active)
same,EC50,[2],> 32 µM (inactive)
same,IC50,[3],2.95 µM (active)
Cc1oc2ccc(OCC(N)=O)cc2c1C(=O)OC(C)C,IC50,[4],44.9 µM (not active)
COc1ccc(NC(=O)N2CCCCN3[C@H](CO)[C@@H](c4ccc(-c5ccccc5F)cc4)[C@H]3C2)cc1,AC50,[5],1.81 µM (active)
CC1=Nc2cccc3cccc(c23)N1,IC50,[6],3.71 µM (active)
same,IC50,[7],> 100 µM (active)
same,IC50,Protein Tat,> 100 µM (inconclusive)
COc1ccccc1/C=N/NC(=O)NC12CC3CC(CC(C3)C1)C2,CC50,[8],> 40 µM (active)
same,IC50,[9],> 100 µM (active)
Cc1nnc(SCc2ccc(Cl)cc2)nc1/C=C/N(C)C,EC50,[10],0.66 µM (active)
same,EC50,[11],> 60 µM (not active)
same,EC50,Transthyretin,> 167 µM (inactive)
O=C(c1ccco1)N(CCC(c1ccccc1)c1ccco1)Cc1ccc(F)cc1 (stereo not given),CC50,[12],> 40 µM (active)
COc1ccc(Nc2nc(N)nc(CSC(=S)N3CCN(c4ccccc4)CC3)n2)cc1,IC50,[13],> 100 µM (active)

# From ChEMBL document CHEMBL1201862, “PubChem BioAssay data set” (2004)
